The values that follow come from PMC11035696, “Prospective de novo drug design with deep interactome learning” (Nature Communications, 2024).

One series deals with PCP RECEPTOR
Briefly: Safety off-target panel, binding. Also noted: species or system Rat. Particulars: 10 µM, single point. The source says:
(§1) Table S9-S12 list all targets, their species, inhibition (%) and assay type for the experiments conducted in the
(§2) off-targets. […] The numbers for mean
(§3) inhibition (%) represent single point measurements.
(§4) off-targets. […] The numbers for
(§5) mean inhibition (%) represent single point measurements.

Series [1] concerns CA2+ CHANNEL (DILTIAZEM SITE). In words: Safety off-target panel, binding. Further details: species or system Rat. To be noted: 10 µM, single point.
Source text: as §1, §2, §3, §4, §5

In series [2] the test system is GABA-A (BENZODIAZAPINE BINDING SITE). In words: Safety off-target panel, binding. Particulars: 10 µM, single point. Further details: species or system Rat.
Source text: as §1, §2, §3, §4, §5

The next series concerns the target β2-ADRENOCEPTOR (Homo sapiens, UniProt P07550). In words: Safety off-target panel, binding. To be noted: single point.
Source text: as §1, §2, §3, §4, §5

Another series deals with MUSCARINIC RECEPTOR M2 (Homo sapiens, UniProt P08172). Briefly: Safety off-target panel, binding. To be noted: single point.
Sequence of MUSCARINIC RECEPTOR M2 (P08172 whole entry): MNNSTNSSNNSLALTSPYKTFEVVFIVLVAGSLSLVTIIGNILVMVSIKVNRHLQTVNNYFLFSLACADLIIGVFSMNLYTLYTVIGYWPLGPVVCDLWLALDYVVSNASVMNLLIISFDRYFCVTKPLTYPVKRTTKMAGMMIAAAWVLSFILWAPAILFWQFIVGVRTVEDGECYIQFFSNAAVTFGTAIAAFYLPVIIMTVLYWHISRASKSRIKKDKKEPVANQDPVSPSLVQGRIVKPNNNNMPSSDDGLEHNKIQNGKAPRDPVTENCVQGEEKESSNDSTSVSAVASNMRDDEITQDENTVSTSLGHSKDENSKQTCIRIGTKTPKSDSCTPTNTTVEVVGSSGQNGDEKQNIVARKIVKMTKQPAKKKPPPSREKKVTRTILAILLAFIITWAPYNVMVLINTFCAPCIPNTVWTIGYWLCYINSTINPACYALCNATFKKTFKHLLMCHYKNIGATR
Source text: as §1, §2, §3, §4, §5

In the next series the target is PPARγ (Homo sapiens, UniProt P37231). In words: Safety off-target panel, binding. Particulars: single point.
Sequence of PPARγ (P37231 whole entry): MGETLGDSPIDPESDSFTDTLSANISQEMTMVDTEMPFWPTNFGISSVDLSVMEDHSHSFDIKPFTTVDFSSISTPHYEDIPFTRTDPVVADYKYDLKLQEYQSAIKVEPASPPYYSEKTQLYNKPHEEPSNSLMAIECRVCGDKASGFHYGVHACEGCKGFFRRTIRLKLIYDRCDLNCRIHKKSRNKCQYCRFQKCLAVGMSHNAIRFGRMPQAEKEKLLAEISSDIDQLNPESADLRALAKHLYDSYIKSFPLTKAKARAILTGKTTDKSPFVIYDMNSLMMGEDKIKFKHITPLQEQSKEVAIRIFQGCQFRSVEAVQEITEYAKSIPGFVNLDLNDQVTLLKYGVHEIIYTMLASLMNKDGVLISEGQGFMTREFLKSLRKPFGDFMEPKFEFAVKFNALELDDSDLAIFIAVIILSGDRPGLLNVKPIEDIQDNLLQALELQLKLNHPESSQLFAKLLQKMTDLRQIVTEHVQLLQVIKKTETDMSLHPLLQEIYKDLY
Source text: as §1, §2, §3, §4, §5

For another series, the target named is PROSTAGLANDIN F RECEPTOR (Homo sapiens, UniProt P43088). In words: Safety off-target panel, binding. To be noted: single point.
Sequence of UniProt P43088 (P43088 whole entry): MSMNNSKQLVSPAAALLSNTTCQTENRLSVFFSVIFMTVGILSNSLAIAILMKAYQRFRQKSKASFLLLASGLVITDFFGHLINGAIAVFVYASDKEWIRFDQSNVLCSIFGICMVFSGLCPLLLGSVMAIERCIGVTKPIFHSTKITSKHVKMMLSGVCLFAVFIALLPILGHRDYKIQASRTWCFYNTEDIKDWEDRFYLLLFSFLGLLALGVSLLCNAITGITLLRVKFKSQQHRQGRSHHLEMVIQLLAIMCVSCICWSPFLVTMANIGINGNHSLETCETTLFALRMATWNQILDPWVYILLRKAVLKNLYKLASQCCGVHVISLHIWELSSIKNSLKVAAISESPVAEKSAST
Source text: as §1, §2, §3, §4, §5

The next series deals with T1, human PPARδ (Homo sapiens, UniProt Q03181).
T1 construct: expressed in transfected cells; host or cells: HEK293T
T1 sequence (Q03181 211-439 limits assumed): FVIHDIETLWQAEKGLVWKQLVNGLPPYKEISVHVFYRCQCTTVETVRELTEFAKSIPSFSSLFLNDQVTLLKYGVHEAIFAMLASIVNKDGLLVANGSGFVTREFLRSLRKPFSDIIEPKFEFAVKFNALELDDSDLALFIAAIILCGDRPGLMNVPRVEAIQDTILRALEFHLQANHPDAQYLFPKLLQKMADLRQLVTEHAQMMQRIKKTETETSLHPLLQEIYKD
In words: Gal4-hybrid reporter gene assay, PPARδ activation. It counts as cell-based. As to the method:
(§6) Compounds 1–3 were characterized in a hybrid reporter gene assay for their agoniztic effect on human nuclear receptors PPARα/γ/δ, RXRα, FXRα, RARα in HEK293T cells. Compound 1 was tested in an isothermal titration calorimetry (ITC) assay to measure direct binding affinity to the ligand-binding domain of PPARγ. ADME properties were measured in standardized assays at Roche.
PPAR activation was determined in uniform Gal4-hybrid reporter gene assays for the PPARα, PPARγ and PPARδ isoforms in HEK293T cells (German Collection of Microorganisms and Cell Culture GmbH, DSMZ) which were transiently transfected with pFR-Luc (Stratagene, La Jolla, CA, USA; reporter) and pRL-SV40 (Promega, Madison, WI, USA; internal control) and one pFA-CMV-hPPAR-LBD[97] clone, coding for the hinge region and ligand binding domain of the canonical isoform of human PPARα, PPARγ, PPARδ or respectively. Cells were cultured in Dulbecco’s modified Eagle’s medium (DMEM), high glucose supplemented with 10% fetal calf serum (FCS), sodium pyruvate (1 mM), penicillin (100 U ⋅ ml^-1), and streptomycin (100 μg ⋅ ml^-1) at 37 °C and 5% CO2 and seeded in 96-well plates (3 × 10^4 cells per well). After 24 h, medium was changed to Opti-MEM without supplements and cells were transiently transfected using Lipofectamine LTX reagent (Invitrogen) according to the manufacturer’s protocol. Five hours after transfection, cells were incubated with the test compounds in Opti-MEM supplemented with penicillin (100 U ⋅ ml^-1), streptomycin (100 μg ⋅ ml^-1) and 0.1% DMSO for 16 h before luciferase activity was measured using the Dual-Glo Luciferase Assay System (Promega) according to the manufacturer’s protocol on a Tecan Spark luminometer (Tecan Deutschland GmbH, Germany). Firefly luminescence was divided by Renilla luminescence and multiplied by 1000 resulting in relative light units (RLU) to normalize for transfection efficiency and cell growth. Fold activation was obtained by dividing the mean RLU of a test compound by the mean RLU of the untreated control. […]
On the technique in general: A reporter such as luciferase makes a cellular process visible.

Series [3] is described as follows: Lipophilicity (LogD pH 7.4). It counts as physicochemical. The protocol:
as §6
(§7) SI11Absorption Distribution Metabolism and Excretion and Toxicity Data
(§8) To assess the drug-like characteristics of the newly designed PPAR modulators, a series of tests were conducted covering various aspects of absorption, distribution, metabolism, and excretion (ADME) properties. Specifically, these assessments included the parallel artificial membrane permeability assay (PAMPA) with permeation co- […]
efficients ([…]), LogD measurements, microsomal clearance, hepatocyte clearance, P-glycoprotein (Pgp) efflux ratio and binding and the unbound free fraction. […]
Table S14: Absorption distribution metabolism and excretion (ADME) properties of compounds 1 and 2. The […]
values for […], LogD, protein binding, P-glycoprotein (Pgp) efflux ratio and permeability, and hepato-cyte clearance are presented as the mean and standard deviation, with a sample size of N = 3, i.e., 3 technical replicates each. The values for microsomal clearance and CYP-inhibition represent single point measurements. […]

The test system of series [4] is cytochrome P450 isoenzymes (Cyp3A4, Cyp1A2, Cyp2B6, Cyp2C9, Cyp2D6, Cyp2C19, Cyp2C8). Briefly: CYP inhibition, summary over seven isoenzymes. It is filed as in vitro ADME. To be noted: dose-response experiments up to 20 μM, result in words. The protocol:
as §7, §8
efficients ([…]), LogD measurements, microsomal clearance, hepatocyte clearance, P-glycoprotein (Pgp) efflux ratio and binding and the unbound free fraction. Furthermore, the evaluation of inhibition po-tential against cytochrome P450 isoenzymes (CYP) proteins was investigated. For seven selected CYP proteins (i.e., Cyp3A4, Cyp1A2, Cyp2B6, Cyp2C9, Cyp2D6, Cyp2C19, and Cyp2C8) the half maximal inhibitory con-centration (IC50) was determined. (Table S15). […]
activity in the CYP assays was found.
Table S14: Absorption distribution metabolism and excretion (ADME) properties of compounds 1 and 2. […]
The values for microsomal clearance and CYP-inhibition represent single point measurements. […]
Molecule Enzyme Substrate IC50 (µM) […]

Entries after “also recorded” stand apart in the source; their conditions may differ.

Sequence of UniProt P07550 (P07550 whole entry): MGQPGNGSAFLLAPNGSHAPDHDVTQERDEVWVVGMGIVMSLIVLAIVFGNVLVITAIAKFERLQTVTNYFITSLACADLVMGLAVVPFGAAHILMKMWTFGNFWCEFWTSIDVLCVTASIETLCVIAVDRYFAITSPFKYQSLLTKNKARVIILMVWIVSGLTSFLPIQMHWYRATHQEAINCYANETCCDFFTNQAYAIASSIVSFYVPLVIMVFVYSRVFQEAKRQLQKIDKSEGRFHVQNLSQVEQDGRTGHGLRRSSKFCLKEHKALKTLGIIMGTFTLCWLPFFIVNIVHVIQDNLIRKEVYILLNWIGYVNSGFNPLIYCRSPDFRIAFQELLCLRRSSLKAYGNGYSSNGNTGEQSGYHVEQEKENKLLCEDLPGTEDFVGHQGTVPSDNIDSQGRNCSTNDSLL

Turning to `COc1ccc(Oc2ccc3ncn(CCOc4ccc(CCC(=O)O)cc4)c3c2)cc1` [Compound 2], the “Mean inhibition (%)” value is listed as 11.8% in the series with PCP RECEPTOR, -11.7% in [1] and 57.8% in series [2]. Moreover, the inhibition at 10 µM worked out at 7% on β2-ADRENOCEPTOR, 6.9% at MUSCARINIC RECEPTOR M2, 89.6% on PPARγ and 4.6% on PROSTAGLANDIN F RECEPTOR. The “activity on PPARδ” value on human PPARδ (result in words) is recorded as “no discernible impact”. In series [3], this compound came in with a log distribution coefficient (logD) of 1.7. In addition, the “interaction with the seven pivotal cytochrome P450 isoenzymes” value in series [4] is “did not echibit any relevant; also recorded: did not exhibit any relevant activity”.

In the case of `Cc1nnc(-c2ccc(OCCCOc3ccc(CCC(=O)O)c(F)c3)c(F)c2)s1` [Compound 1], the “Mean inhibition (%)” value is listed as -12.0% in the series on PCP RECEPTOR, -4.7% in series [1] and 12.5% in series [2]. In addition, the inhibition at 10 µM at β2-ADRENOCEPTOR came out at 4%; on MUSCARINIC RECEPTOR M2, 4.2%; at PPARγ, 95%; on PROSTAGLANDIN F RECEPTOR, 0%. Moreover, a half-maximal response at human PPARδ (HEK293T cells) (EC50) required 240 ± 50 nM. For the same compound, the logD in series [3] stood at 1.5. For the same compound, the “interaction with the seven pivotal cytochrome P450 isoenzymes” value in series [4] was “did not echibit any relevant; also recorded: did not exhibit any relevant activity”.

Broadly, the inhibition is the change of the read-out against control, counted positive when it falls. Read a high inhibition as a strong effect. A word on the logD: it is lipophilicity at a set pH, counting ionised and neutral species. As a reminder, the EC50 is the concentration giving half of the maximal effect.
